Data taken from patent publication US9227970B2, “Triazolopyridine compounds” (Hoffmann-La Roche Inc., priority 2011, dated 2016).

Legend:
human PDE10A = human PDE10A (Homo sapiens (Human), UniProt Q9Y233); experiment: human PDE10A full length Scintillation Proximity Assay (SPA); assay type: biochemical; conditions: 50 nM cGMP + 50 nM [3H]-cGMP, 20 minutes at room temperature, read-out: PDE10A inhibition IC50
Procedure: The following test was carried out in order to determine the activity of the compounds of the present invention. […] The human PDE10A full length assay was performed in 96-well micro titer plates. […] A range of concentrations of the potential inhibitor was used to generate data for calculating the concentration of inhibitor resulting in 50% of the effect (e.g. […] Non-specific activity was tested without the enzyme. The reaction was initiated by the addition of the substrate solution (cGMP and [^3H]-cGMP) and allowed to progress for 20 minutes at room temperature. The reaction was terminated by adding 25 μl of YSi-SPA scintillation beads (GE Healthcare, cat. # RPNQ0150) in 18 mM zinc sulphate solution (stop reagent). […] Afterwards, radioactive counts were measured on a Perkin Elmer Top-Count Scintillation plate reader.

Salmonella = experiment: Ames test (downscaled preincubation version); assay type: cell-based; conditions: downscaled standard preincubation Ames test
Procedure: Ames Test was performed as a downscaled version of the standard preincubation Ames test and adapted from the method described by Kado et al. with some modifications e.g. Maron. D. M. and B. N. Ames (1983). Revised methods for the Salmonella mutagenicity test. Mutation Research, 113, 173-215. N. Y. Kado, D. Langley and E. Eisenstadt A simple modification of the Salmonella liquid-incubation assay. Increased sensitivity for detecting mutagens in human urine, Mutat Res 121 (1983) 25-32.

Chain of human PDE10A (Q9Y233 other isoform, or with tags, fused parts or gaps): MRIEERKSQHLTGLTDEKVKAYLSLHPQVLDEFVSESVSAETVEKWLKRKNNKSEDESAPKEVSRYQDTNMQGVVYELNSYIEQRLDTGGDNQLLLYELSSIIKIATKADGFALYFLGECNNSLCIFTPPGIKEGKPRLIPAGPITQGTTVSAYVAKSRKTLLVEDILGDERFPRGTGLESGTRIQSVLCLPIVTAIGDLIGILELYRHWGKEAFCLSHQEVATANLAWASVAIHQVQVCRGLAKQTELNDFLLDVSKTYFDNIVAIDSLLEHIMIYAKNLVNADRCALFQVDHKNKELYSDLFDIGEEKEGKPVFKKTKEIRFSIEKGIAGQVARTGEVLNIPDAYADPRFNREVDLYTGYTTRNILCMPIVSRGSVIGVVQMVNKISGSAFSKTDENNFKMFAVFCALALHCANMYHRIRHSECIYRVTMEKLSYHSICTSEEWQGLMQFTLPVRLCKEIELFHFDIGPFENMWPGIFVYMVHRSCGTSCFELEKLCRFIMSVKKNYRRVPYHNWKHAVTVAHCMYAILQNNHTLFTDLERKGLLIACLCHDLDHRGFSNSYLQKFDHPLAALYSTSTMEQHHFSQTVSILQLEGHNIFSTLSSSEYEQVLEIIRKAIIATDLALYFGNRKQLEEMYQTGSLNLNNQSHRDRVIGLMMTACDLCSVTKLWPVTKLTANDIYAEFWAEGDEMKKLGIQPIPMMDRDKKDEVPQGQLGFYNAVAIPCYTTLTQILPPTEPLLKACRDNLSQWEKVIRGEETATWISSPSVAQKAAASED

| Compound | IC50 (human PDE10A) | Ames test (Salmonella) | melting point |
| --- | --- | --- | --- |
| Cn1ncc(C(=O)N2CCC2)c1C(=O)Nc1ccc2nc(-c3ccccc3)nn2c1 [Example 3, 4-(Azetidine-1-carbonyl)-2-methyl-2H-pyrazole-3-carboxylic acid (2-phenyl-[1,2,4]triazolo[1,5-a]pyridin-6-yl)-amide] | 0.6 nM | negative | 235 to 236 °C |
| Cn1ncc(C(=O)N2CCOCC2)c1C(=O)Nc1ccc2nc(-c3ccccc3)nn2c1 [Example 5, 1-Methyl-4-(morpholine-4-carbonyl)-N-(2-phenyl-[1,2,4]triazolo[1,5-a]pyridin-6-yl)-1H-pyrazole-5-carboxamide] | 2.5 nM | negative | 183 to 185 °C |
| CN(C(=O)c1cnn(C)c1C(=O)Nc1ccc2nc(-c3cccnc3)nn2c1)C1CC1 [Example 11, N4-Cyclopropyl-N4,1-dimethyl-N5-(2-(pyridin-3-yl)-[1,2,4]triazolo[1,5-a]pyridin-6-yl)-1H-pyrazole-4,5-dicarboxamide] | 6.7 nM | negative | 237 °C |
| Cn1ncc(C(=O)N2CCCC2)c1C(=O)Nc1ccc2nc(-c3cccnc3)nn2c1 [Example 12, 1-Methyl-N-(2-(pyridin-3-yl)-[1,2,4]triazolo[1,5-a]pyridin-6-yl)-4-(pyrrolidine-1-carbonyl)-1H-pyrazole-5-carboxamide] | 17.9 nM | – | 251 °C |
| Cn1ncc(C(=O)N2CCCC2)c1C(=O)Nc1ccc2nc(N3CCOCC3)nn2c1 [Example 13, 2-Methyl-4-(pyrrolidine-1-carbonyl)-2H-pyrazole-3-carboxylic acid (2-morpholin-4-yl-[1,2,4]triazolo[1,5-a]pyridin-6-yl)-amide] | 15.4 nM | – | 185 °C |
| Cn1ncc(C(=O)N2CCC2)c1C(=O)Nc1ccc2nc(N3CCOCC3)nn2c1 [Example 15] | – | negative | – |
| CN(C(=O)c1cnn(C)c1C(=O)Nc1ccc2nc(N3CCOCC3)nn2c1)C1CC1 [Example 18, 2-Methyl-2H-pyrazole-3,4-dicarboxylic acid 4-(cyclopropyl-methyl-amide) 3-[(2-morpholin-4-yl-[1,2,4]triazolo[1,5-a]pyridin-6-yl)-amide]] | 7.2 nM | – | 172 °C |
| CN(C)c1nc2ccc(NC(=O)c3c(C(=O)N4CCOCC4)cnn3C)cn2n1 [Example 19, 2-Methyl-4-(morpholine-4-carbonyl)-2H-pyrazole-3-carboxylic acid (2-dimethylamino-[1,2,4]triazolo[1,5-a]pyridin-6-yl)-amide] | 36 nM | negative | – |
| CN(C)c1nc2ccc(NC(=O)c3c(C(=O)N4CCC4)cnn3C)cn2n1 [Example 20, 4-(Azetidine-1-carbonyl)-2-methyl-2H-pyrazole-3-carboxylic acid (2-dimethylamino-[1,2,4]triazolo[1,5-a]pyridin-6-yl)-amide] | 8.2 nM | negative | – |
